From PubChem BioAssay (NCI)
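Each compound was tested at five concentrations against cells in 96-well plates for 48 hours. GI50: concentration for 50% inhibition of growth. The concentration for full growth arrest is given as TGI.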

Tests used:
Assay in all cases: growth of human tumour cells (NCI), 48 h
SR leukemia = tested on: SR leukemia
HL-60(TB) leukemia = tested on: HL-60(TB) leukemia
HT29 colon = tested on: HT29 colon
RXF 393 renal = tested on: RXF 393 renal
MDA-MB-435 = tested on: MDA-MB-435
OVCAR-4 ovarian = tested on: OVCAR-4 ovarian
LOX IMVI melanoma = tested on: LOX IMVI melanoma
UO-31 renal = tested on: UO-31 renal
ACHN renal = tested on: ACHN renal
OVCAR-8 ovarian = tested on: OVCAR-8 ovarian
CCRF-CEM leukemia = tested on: CCRF-CEM leukemia
DU-145 prostate = tested on: DU-145 prostate
OVCAR-5 ovarian = tested on: OVCAR-5 ovarian
IGROV1 ovarian = tested on: IGROV1 ovarian
A549 NSCLC = tested on: A549 NSCLC
KM12 colon = tested on: KM12 colon
NCI-H460 lung = tested on: NCI-H460 lung
MDA-MB-231 breast = tested on: MDA-MB-231 breast
TK-10 renal = tested on: TK-10 renal
HOP-92 NSCLC = tested on: HOP-92 NSCLC
A498 renal = tested on: A498 renal
CAKI-1 renal = tested on: CAKI-1 renal
SW-620 colon = tested on: SW-620 colon
NCI-H23 lung = tested on: NCI-H23 lung
786-0 renal = tested on: 786-0 renal
SNB-75 CNS = tested on: SNB-75 CNS
SK-MEL-28 melanoma = tested on: SK-MEL-28 melanoma
UACC-257 melanoma = tested on: UACC-257 melanoma
NCI-H226 lung = tested on: NCI-H226 lung
HOP-62 NSCLC = tested on: HOP-62 NSCLC
MOLT-4 leukemia = tested on: MOLT-4 leukemia
PC-3 prostate = tested on: PC-3 prostate
MCF7 breast = tested on: MCF7 breast
NCI/ADR-RES ovarian = tested on: NCI/ADR-RES ovarian
HCT-116 colon = tested on: HCT-116 colon
OVCAR-3 ovarian = tested on: OVCAR-3 ovarian
BT-549 breast = tested on: BT-549 breast
RPMI-8226 leukemia = tested on: RPMI-8226 leukemia
MALME-3M melanoma = tested on: MALME-3M melanoma
SF-268 CNS = tested on: SF-268 CNS
SN12C renal = tested on: SN12C renal
HCT-15 colon = tested on: HCT-15 colon
HCC-2998 colon = tested on: HCC-2998 colon
SF-539 CNS = tested on: SF-539 CNS
SF-295 CNS = tested on: SF-295 CNS
SK-MEL-5 melanoma = tested on: SK-MEL-5 melanoma
SNB-19 CNS = tested on: SNB-19 CNS
K-562 leukemia = tested on: K-562 leukemia
HS 578T breast = tested on: HS 578T breast
U251 CNS = tested on: U251 CNS
COLO 205 colon = tested on: COLO 205 colon
NCI-H522 lung = tested on: NCI-H522 lung
EKVX NSCLC = tested on: EKVX NSCLC
UACC-62 melanoma = tested on: UACC-62 melanoma
M14 melanoma = tested on: M14 melanoma
SK-MEL-2 melanoma = tested on: SK-MEL-2 melanoma
SK-OV-3 ovarian = tested on: SK-OV-3 ovarian

S=c1ncc2n[nH]nc2[nH]1
TGI (SR leukemia): > 100 µM | TGI (HL-60(TB) leukemia): > 100 µM | TGI (HT29 colon): > 100 µM | TGI (RXF 393 renal): > 100 µM | TGI (MDA-MB-435): > 100 µM | TGI (OVCAR-4 ovarian): > 100 µM | TGI (LOX IMVI melanoma): > 100 µM | TGI (UO-31 renal): > 100 µM | TGI (ACHN renal): > 100 µM | TGI (OVCAR-8 ovarian): > 100 µM | TGI (CCRF-CEM leukemia): > 100 µM | TGI (DU-145 prostate): > 100 µM | TGI (OVCAR-5 ovarian): > 100 µM | TGI (IGROV1 ovarian): > 100 µM | TGI (A549 NSCLC): > 100 µM | TGI (KM12 colon): > 100 µM | TGI (NCI-H460 lung): > 100 µM | TGI (MDA-MB-231 breast): > 100 µM | TGI (TK-10 renal): > 100 µM | TGI (HOP-92 NSCLC): > 100 µM | TGI (A498 renal): > 100 µM | TGI (CAKI-1 renal): > 100 µM | TGI (SW-620 colon): > 100 µM | TGI (NCI-H23 lung): > 100 µM | TGI (786-0 renal): > 100 µM | TGI (SNB-75 CNS): > 100 µM | TGI (SK-MEL-28 melanoma): > 100 µM | TGI (UACC-257 melanoma): > 100 µM | TGI (NCI-H226 lung): > 100 µM | TGI (HOP-62 NSCLC): > 100 µM | TGI (MOLT-4 leukemia): > 100 µM | TGI (PC-3 prostate): > 100 µM | TGI (MCF7 breast): > 100 µM | TGI (NCI/ADR-RES ovarian): > 100 µM | TGI (HCT-116 colon): > 100 µM | TGI (OVCAR-3 ovarian): > 100 µM | TGI (BT-549 breast): > 100 µM | TGI (RPMI-8226 leukemia): > 100 µM | TGI (MALME-3M melanoma): > 100 µM | TGI (SF-268 CNS): > 100 µM | TGI (SN12C renal): > 100 µM | TGI (HCT-15 colon): > 100 µM | TGI (HCC-2998 colon): > 100 µM | TGI (SF-539 CNS): > 100 µM | TGI (SF-295 CNS): > 100 µM | TGI (SK-MEL-5 melanoma): > 100 µM | TGI (SNB-19 CNS): > 100 µM | TGI (K-562 leukemia): > 100 µM | TGI (HS 578T breast): > 100 µM | TGI (U251 CNS): > 100 µM | TGI (COLO 205 colon): > 100 µM | TGI (NCI-H522 lung): > 100 µM | TGI (EKVX NSCLC): > 100 µM

COc1cc2cc(c1Cl)N(C)C(=O)C[C@H](OC(=O)[C@H](C)N(C)C(=O)CCS)C[C@]1(C)O[C@H]1[C@H](C)[C@@H]1C[C@@](O)(NC(=O)O1)[C@H](OC)/C=C/C=C(\C)C2
GI50 (SR leukemia): < 0.005 µM | TGI (SR leukemia): > 50 µM | GI50 (HL-60(TB) leukemia): < 0.005 µM | TGI (HL-60(TB) leukemia): < 0.005 µM | GI50 (HT29 colon): < 0.005 µM | TGI (HT29 colon): > 50 µM | GI50 (RXF 393 renal): 0.00644 µM | TGI (RXF 393 renal): > 50 µM | GI50 (MDA-MB-435): < 0.005 µM | TGI (MDA-MB-435): < 0.005 µM | GI50 (OVCAR-4 ovarian): 0.0218 µM | TGI (OVCAR-4 ovarian): > 50 µM | GI50 (LOX IMVI melanoma): < 0.005 µM | TGI (LOX IMVI melanoma): > 22.9 µM | GI50 (UO-31 renal): 0.0282 µM | TGI (UO-31 renal): > 50 µM | GI50 (ACHN renal): < 0.005 µM | TGI (ACHN renal): > 50 µM | GI50 (UACC-62 melanoma): < 0.005 µM | TGI (UACC-62 melanoma): > 50 µM | GI50 (OVCAR-8 ovarian): 0.0083 µM | TGI (OVCAR-8 ovarian): > 50 µM | GI50 (CCRF-CEM leukemia): < 0.005 µM | TGI (CCRF-CEM leukemia): > 50 µM | GI50 (DU-145 prostate): < 0.005 µM | TGI (DU-145 prostate): > 50 µM | GI50 (OVCAR-5 ovarian): 0.00994 µM | TGI (OVCAR-5 ovarian): > 50 µM | GI50 (IGROV1 ovarian): 0.00762 µM | TGI (IGROV1 ovarian): > 50 µM | GI50 (A549 NSCLC): 0.00752 µM | TGI (A549 NSCLC): > 50 µM | GI50 (KM12 colon): < 0.005 µM | TGI (KM12 colon): > 50 µM | GI50 (NCI-H460 lung): < 0.005 µM | TGI (NCI-H460 lung): > 30.8 µM | GI50 (MDA-MB-231 breast): 0.00681 µM | TGI (MDA-MB-231 breast): 1.61 µM | GI50 (TK-10 renal): > 17.1 µM | TGI (TK-10 renal): > 50 µM | GI50 (HOP-92 NSCLC): < 0.005 µM | TGI (HOP-92 NSCLC): 49.6 µM | GI50 (A498 renal): < 0.005 µM | TGI (A498 renal): 0.496 µM | GI50 (SW-620 colon): < 0.005 µM | TGI (SW-620 colon): > 50 µM | GI50 (NCI-H23 lung): 0.00804 µM | TGI (NCI-H23 lung): > 50 µM | GI50 (786-0 renal): 0.00906 µM | TGI (786-0 renal): > 24.7 µM | GI50 (SNB-75 CNS): < 0.005 µM | TGI (SNB-75 CNS): > 50 µM | GI50 (SK-MEL-28 melanoma): 3.47 µM | TGI (SK-MEL-28 melanoma): > 50 µM | GI50 (UACC-257 melanoma): > 50 µM | TGI (UACC-257 melanoma): > 50 µM | GI50 (NCI-H226 lung): 0.038 µM | TGI (NCI-H226 lung): > 50 µM | GI50 (M14 melanoma): < 0.005 µM | TGI (M14 melanoma): < 0.005 µM | GI50 (HOP-62 NSCLC): < 0.005 µM | TGI (HOP-62 NSCLC): > 50 µM | GI50 (MOLT-4 leukemia): < 0.005 µM | TGI (MOLT-4 leukemia): > 50 µM | GI50 (PC-3 prostate): < 0.005 µM | TGI (PC-3 prostate): > 50 µM | GI50 (MCF7 breast): < 0.005 µM | TGI (MCF7 breast): > 50 µM | GI50 (NCI/ADR-RES ovarian): 0.0244 µM | TGI (NCI/ADR-RES ovarian): 34.8 µM | GI50 (HCT-116 colon): < 0.005 µM | TGI (HCT-116 colon): 5.78 µM | GI50 (OVCAR-3 ovarian): < 0.005 µM | TGI (OVCAR-3 ovarian): > 50 µM | GI50 (BT-549 breast): < 0.005 µM | TGI (BT-549 breast): 0.134 µM | GI50 (RPMI-8226 leukemia): < 0.005 µM | TGI (RPMI-8226 leukemia): 21.6 µM | GI50 (SK-MEL-2 melanoma): < 0.005 µM | TGI (SK-MEL-2 melanoma): > 50 µM | GI50 (SF-268 CNS): 0.00954 µM | TGI (SF-268 CNS): > 50 µM | GI50 (SN12C renal): < 0.005 µM | TGI (SN12C renal): > 50 µM | GI50 (HCT-15 colon): 0.00624 µM | TGI (HCT-15 colon): > 50 µM | GI50 (HCC-2998 colon): 0.00609 µM | TGI (HCC-2998 colon): > 50 µM | GI50 (SF-539 CNS): < 0.005 µM | TGI (SF-539 CNS): 0.0674 µM | GI50 (SF-295 CNS): < 0.005 µM | GI50 (SK-MEL-5 melanoma): < 0.005 µM | TGI (SK-MEL-5 melanoma): 0.0628 µM | GI50 (SNB-19 CNS): < 0.005 µM | TGI (SNB-19 CNS): > 50 µM | GI50 (K-562 leukemia): < 0.005 µM | TGI (K-562 leukemia): > 50 µM | GI50 (HS 578T breast): 0.0164 µM | TGI (HS 578T breast): > 32 µM | GI50 (U251 CNS): < 0.005 µM | TGI (U251 CNS): > 32.9 µM | GI50 (SK-OV-3 ovarian): < 0.005 µM | TGI (SK-OV-3 ovarian): > 50 µM | GI50 (COLO 205 colon): < 0.005 µM | TGI (COLO 205 colon): 0.0257 µM | GI50 (NCI-H522 lung): < 0.005 µM | TGI (NCI-H522 lung): 0.0426 µM | GI50 (EKVX NSCLC): 0.00951 µM | TGI (EKVX NSCLC): > 50 µM
